Measurements taken from patent US10494417B2, “Peptide inhibitors of BCR-ABL oligomerization” (University of Utah Research Foundation, priority 2014, dated 2019).
“Also recorded” adds a separate entry of the source.

Legend:
K562 cells [1] = assay: Colony forming assay of transfected K562 cells; type: cell-based, human; conditions: for colony formation (transformative ability), in words: construct delivered as a gene by transfection, vs EGFP (and WT) control
Protocol: Both EGFP and EGFP-CC^mut3 were transfected into separate groups of cells on day 0. One day following transfection, 1.0×10^6 cells per treatment group were collected and re-suspended in 1.0 mL of PBS. Through serial dilutions, 1.0×10^3 cells in IMDM (Isocove's modified Dulbecco's media) with 2% FBS were seeded into methylcellulose medium in the absence of cytokines (MethoCult H4230 for K562 cells and MethoCult M3234 for p210 and p210-T315I cells) or in the presence of cytokines (MethoCult GF M3434 for parental Ba/F3 cells). Ponatinib was then added in the correct molar amounts (0, 100 pM, 1 nM, or 10 nM) to the methylcellulose medium. Colonies formed were counted after 7 days of incubation. All reagents were purchased from Stem Cell Technologies, Vancouver, BC, Canada. Assay was run three separate times (n=3) in duplicate.
(§1) Briefly, K562 or Ba/F3-p210 cells were transfected according to the protocol above. One day following transfection, 1.0×10^6 cells per transfection group were collected and re-suspended in sterile PBS. […] Finally, 1.1 mL of cell/methylcellulose mixture was seeded in duplicate and allowed to grow at 37° C. and 5% CO2 for 7 days. Colony formation was assessed by counting colonies in two 200 μm2 areas on the plate. Experiments were performed once in duplicate (n=1 in duplicate). All kit reagents and media were purchased from Stem Cell Technologies (Vancouver, BC, Canada).

[2] = tested on: CML CD34+ cells expressing BCR-ABL1T315I; assay: Colony forming assay of primary CML CD34+ cells expressing BCR-ABL1T315I (samples R1, R2); type: cell-based, human; conditions: sample R1 (accelerated phase); lentiviral CCmut3 or 10 nM ponatinib vs EV
Protocol: Mononuclear cells (MNCs) were separated from the peripheral blood of patients with newly diagnosed or therapy-resistant CML with a documented T315I mutation, using Ficoll (Nycomed, Oslo, Norway). Isolation of the CD34^+ fraction was done on an autoMACS Pro (Miltenyi Biotech). […] Cells were infected with lentivirus at a multiplicity of infection (MOI) of 5 for each construct at 24 and 48 hours following harvest (fresh cells) or thaw (frozen cells). Cells were sorted on a BD FACSAria cytometer after 72 h, and GFP-positive cells were returned to culture medium for future experiments. All patients gave their informed consent in accordance with the Declaration of Helsinki, and all studies with human specimens were approved by The University of Utah Institutional Review Board (IRB).
Briefly, lentivirus-infected (GFP^+) cells were isolated by FACS and resuspended in RPMI1640. […] Plates were incubated at 37° C. in a 5% CO2 humidified incubator for 14 days. Colony forming units of granulocyte-macrophage (CFU-GM) were counted on day 14 using an inverted microscope.
All cells were plated with or without the indicated TKI in three or more independent experiments. Plates were incubated at 37° C. in a 5% CO2 humidified incubator. Colonies were counted 7-14 days later in an area of 50 μm2 per dish using an inverted microscope.

[3] = tested on: CML CD34+ cells expressing BCR-ABL1T315I; assay: Liquid culture of primary T315I CML cells; type: cell-based, human; conditions: CC^mut3 or increasing concentrations of ponatinib (FIG. 28C)
Protocol: Cell proliferation was assessed using the CellTiter 96® AQueous One Solution Cell Proliferation Assay (MTS assay, Promega) according to manufacturer instructions. Briefly, 5,000 viable cells were added to a single well in 96-well plate in 100 μL RPMI1640. Three independent samples were seeded in duplicate for each time point. […] In some experiments, cell proliferation was assessed using a Neubauer chamber and trypan blue dye exclusion.

[4] = Phase III trial for first-line therapy in CML patients, discontinued; cited from earlier work
K562 cells [5] = assay: Proliferation/viability of transfected K562 cells (trypan blue exclusion); type: cell-based, human; conditions: 72 h following transfection, trypan blue exclusion, vs mCherry control, n=1
Protocol: K562 cells, human leukemia Bcr-Abl^+ cells (gifted from Kojo Elenitoba-Johnson, University of Michigan), were grown in RPMI 1640 media supplemented with 10% FBS, 1% penicillin-streptomycin-glutamine, and 0.1% gentamicin (complete medium). […] Transfections were carried out two days following cell passaging. Then, 2.0×10^6 cells were collected and transfected with 6 μg pf pEGFP, pEGFP-CC^mut3, pmCherry, or pmCherry-CC^mut3 according to the Cell Line Nucleofector Kit V protocol, program T-013, using the Amaxa Nucleofector II (Lonza Group, Basel, Switzerland).
Cell counts were performed using a standard light microscope.
Two days following cell passaging, 2.0×10^6 cells were collected by centrifugation at 500×g for 10 min for each transfection group. Following cell collection, 6 lig DNA (pEGFP, pEGFP-CC, pEGFP-CCmut3, pEGFP-Helix2WT, pEGFP-Helix2mut3, pmCherry, pmCherry-CCmut3, or pmCherry-CappedHelix2mut3) was transfected into cells according to the Cell Line Nucleofector® Kit V protocol (program T-013) using the Amaxa Nucleofector II (Lonza Group, Basel, Switzerland). Following transfection, the DNA/cell mixture was added to 10 mL Complete RPMI 1640 media and allowed to incubate at 37° C. for 24, 48, or 72 h until analysis, depending on the assay.
(§2) Forty-eight or 72 h following transfection, 100 μL of treated K562 or Ba/F3-p210 cells was mixed with 100 μL trypan blue solution (Life Technologies). The numbers of viable cells (those impermeable to the trypan blue dye) from four different quadrants in an INCYTO™ C-CHIP™ Neubauer hemacytometer (VWR International, Radnor, Pa., USA) were counted using a standard light microscope. Quadrant counts were then averaged to obtain the number of viable cells per mL. For experiments using the Helix2mut3 construct, counts were performed on one aliquot per transfection (n=3 in replicate). In experiments involving the CappedHelix2mut3 construct, counts were performed three times using separate 100 pt aliquots from one transfection (n=1 in triplicate).

Ba/F3-P210 cells = assay: Viability of transfected Ba/F3-p210 cells (trypan blue exclusion); type: cell-based, mouse; conditions: 72 h following transfection, vs mCherry control, n=1
Protocol: Two days following cell passaging, 3.0×10^6 cells were collected by centrifugation at 750×g for 10 min for each transfection group. Following collection, 4 μg DNA was transfected into cells according to the Cell Line Nucleofector® Kit V protocol (program X-001) using the Amaxa Nuelcofector II. Following nucleofection, the DNA/cell mixture was added to 500 μL plain RPMI and incubated for 20 min. After incubation, the 500 μL cell/DNA/RPMI mixture was added to complete RPMI 1640 media and allowed to incubate at 37° C. for 72 h until analysis.
as §2

[6] = tested on: Ba/F3 cells expressing native BCR-ABL1 (Ba/F3-p210); assay: Colony forming assay of transfected Ba/F3-p210 cells; type: cell-based, mouse; conditions: cappedHelix2mut3 study, n=1, data not shown
Protocol: as §1

[7] = tested on: CD34+ cells from newly diagnosed CML patients; assay: Colony forming assay of CD34+ cells from newly diagnosed CML patients; type: cell-based, human; conditions: day 14 CFU-GM; lentiviral CCmut3 or 2.5 μM imatinib vs EV
Protocol: Primary cells were seeded in Methocult H4230 (Stem Cell Technologies) as described previously (Fleischman, A. G., et al. (2011). Blood 118, 6392-6398). Briefly, lentivirus-infected (GFP^+) cells were isolated by FACS and resuspended in RPMI1640. Cells were plated in Methocult H4230 at 1,000 cells/mL supplemented with 1× StemSpan CC100 cytokine mix (StemCell Technologies) with or without TKI as indicated in each experiment. Plates were incubated at 37° C. in a 5% CO2 humidified incubator for 14 days. Colony forming units of granulocyte-macrophage (CFU-GM) were counted on day 14 using an inverted microscope.
Following selection of transfected cells by cell sorting, methylcellulose colony assays were performed by plating in 0.9% methylcellulose (Stem Cell Technologies; M3234 for Ba/F3 BCR-ABL1 native and mutant lines; M3434 for Ba/F3 parental cells; H4230 for CML patient samples). mCherry-positive Ba/F3 cells (1.1×10^3 cells/plate) or GFP-positive primary CML CD34+ cells (1×10^3 cells/plate) were seeded per dish in duplicate. In the case of CML patient samples, cells were plated in the presence of 1× StemSpan CC100 cytokine cocktail (StemCell Technologies). All cells were plated with or without the indicated TKI in three or more independent experiments. Plates were incubated at 37° C. in a 5% CO2 humidified incubator. Colonies were counted 7-14 days later in an area of 50 μm2 per dish using an inverted microscope.

K562 cells [8] = assay: Nuclear (DNA) segmentation apoptosis assay in transfected K562 cells; type: cell-based, human; conditions: 48 h, vs EGFP control
Protocol: CC^mut3 was then tested for its ability to induce apoptosis in K562 cells. Apoptosis was observed using 3 different methods: 1) nuclear segmentation; 2) induction of the effector Caspase-3/7; and 3) 7AAD/Annexin V staining.
Nuclear segmentation analysis was performed as previously described (16). Briefly, immediately prior to cellular analysis, 2-well live cell chambers were treated for 15 min with poly-L-lysine (Sigma-Aldrich, St. Louis, Mo., USA), to allow cell adhesion in the wells. Forty-eight h following transfection, the transfected K562 cells were transferred to the pretreated 2-well live cell chambers. Cells were incubated for 15 min at 37° C. following the addition of 0.3 μL Hoechst H33342 nuclear stain (Life Technologies, Carlsbad, Calif., USA). Cells were then imaged using an inverted fluorescence microscope (Olympus IX701F, Scientific Instrument Co., Sunnyvale, Calif., USA) equipped with an F-view Monochrome CCD camera. Fields of view were selected based on EGFP fluorescence when viewing using a 40× oil immersion objective. Nuclei from cells that were positively transfected (positive for EGFP fluorescence) were categorized as either healthy (round or kidney-shaped nuclei) or segmented (punctate staining of nuclei), and the percentage of cells with segmented DNA was calculated (n=3 in replicate).

Q: With “helix2 domain: helix2 domain (amino acids 28-67) with the CC^mut3 mutations, delivered as a gene via nucleofection (MELRSVGDIEQELERAEARIRRDEQRVNQERFRMIYLETLLAKEKKSYDR)” as the molecule, how does the “colony formation (transformative ability), in words” value (K562 cells [1]) read?
A: sufficient to inhibit colony formation in K562 cells

Q: For `Cc1ccc(C(=O)Nc2ccc(CN3CCN(C)CC3)c(C(F)(F)F)c2)cc1C#Cc1cnc2cccnn12` [ponatinib, 3-[2-(imidazo[1,2-b]pyridazin-3-yl)ethynyl]-4-methyl-N-{4-[(4-methylpi-perazin-1-yl)methyl]-3-(trifluoromethyl)phenyl}benzamide, reference compound], which “reduction of colony formation” value [2] is on record?
A: 47%

Q: What about the “effect in liquid culture” value [3] of the same molecule?
A: no effect

Q: And the “patients with serious side effects” value [4]?
A: ~12%

Q: For “cappedHelix2mut3: residues 27-68: α-helix2 of BCR-ABL CC domain with capping residues S27 and G68 and CCmut3 mutations (SVGDIEQELERAEARIRRDEQRVNQERFRMIYLETLLAKEKG)”, which colony formation (K562 cells [1]; cappedHelix2mut3 study, n=1, data not shown) is on record?
A: failed to out-perform the negative control; also recorded: same pattern as in the cell proliferation studies

Q: And the “proliferation/viability of K562 cells” value (K562 cells [5])?
A: failed to out-perform the negative control; also recorded: did not display inhibition of cell proliferation; also recorded: no evidence of BCR-ABL inhibition

Q: What about the “proliferation/viability of Ba/F3-p210 cells” value (Ba/F3-P210 cells) of the same molecule?
A: replicated to a similar extent; also recorded: no evidence of BCR-ABL inhibition

Q: What about the colony formation [6] of the same molecule?
A: same pattern as in the cell proliferation studies

Q: For `Cc1ccc(NC(=O)c2ccc(CN3CCN(C)CC3)cc2)cc1Nc1nccc(-c2cccnc2)n1` [imatinib, reference compound], which “colony formation, in words” value [7] is on record?
A: equally effective in reducing colony number

Q: For “Helix2mut3: residues 23-72: α-helix2 of BCR-ABL CC domain plus five flanking residues each end, with CCmut3 mutations (MELRSVGDIEQELERAEARIRRDEQRVNQERFRMIYLETLLAKEKKSYDR)”, which “colony formation, of EGFP control” value (K562 cells [1]; 7 days after seeding, normalized to EGFP control, n=1 in duplicate) is on record?
A: approximately 67%

Q: What about the “colony formation (transformative ability), in words” value (K562 cells [1]) of the same molecule?
A: outperformed negative control EGFP; also recorded: showed inhibitory activity; also recorded: prevented outgrowth of colonies to a greater extent than the EGFP control, however, not as well as the full length CCmut3

Q: What about the “induction of apoptosis (nuclear/DNA segmentation)” value (K562 cells [8]) of the same molecule?
A: outperformed negative control EGFP; also recorded: statistically significant increase in apoptosis; also recorded: apoptosis was induced to a similar extent between both CCmut3 and Helix2mut3; also recorded: significantly induced apoptosis
